In article PMC4528135, “Kinetic Investigations of the Role of Factor Inhibiting Hypoxia-inducible Factor (FIH) as an Oxygen Sensor” (The Journal of Biological Chemistry, 2015):
Like-named read-outs stand apart in the source and are kept apart here.

B1: HIF-1α(344–503) NODD protein: recombinant HIF-1α(344–503) NODD protein, longer PHD2 substrate (protein, UniProt Q16665 344-503, looked up, fragment)
chain: GIIQHDLIFSLQQTECVLKPVESSDMKMTQLFTKVESEDTSSLFDKLKKEPDALTLLAPAAGDTIISLDFGSNDTETDDQQLEEVPLYNDVMLPSPNEKLQNINLAMSPLPTAETPKPLRSSADPALNQEVALKLEPNPESLELSFTMPQIQDQTPSPSD

Assays:
Type in all cases: biochemical
FIH [1] = biological target: T1, FIH (Homo sapiens, UniProt Q9NWT6); assay: O2 dependence of FIH-catalyzed hydroxylation (hypoxia workstation); conditions: FIH with the named substrate; 5 μM FIH, 500 μM peptide, 50 μM Fe(II), 1 mM 2OG, 1 mM L-ascorbate, 50 mM HEPES pH 7.5, 37 °C, hypoxia workstation at different pO2; triplicate assays
T1 construct: Full-length recombinant FIH, two- and three-consensus ankyrin repeats (2CA and 3CA) were produced as described; His6 (cleaved yes); made in house; host or cells: Escherichia coli BL21(DE3)
Protocol: (§1) The O2 dependence of FIH-catalyzed reactions was determined by conducting enzymatic assays in an “In vivo 500 Hypoxia Workstation” (Ruskinn) using buffers pre-equilibrated under different pO2 values for 24 h. The O2 dependence of PHD2-catalyzed reactions was determined by conducting enzymatic assays in sealed glass vials with variable N2/O2 contents ([42]). Reactions were stopped by spotting samples onto a matrix-assisted laser desorption/ionization-time of flight mass spectrometry (MALDI-TOF-MS) target plate and immediately mixing with α-cyano-4-hydroxycinnamic acid matrix. Hydroxylation levels were assessed by MALDI-TOF-MS as described ([46]).
FIGURE 4. O2 dependence of FIH- and PHD2-catalyzed hydroxylation of HIF-1/2α. A, O2 dependence of PHD2-catalyzed hydroxylation of HIF-1/2α CODD/NODD 19-mer peptides. 4 μM PHD2, peptide (varied), 50 μM Fe(II), 2OG (varied), 4 mM L-ascorbate in HEPES 50 mM (pH 7.5) were incubated at 37 °C. The different O2 levels were maintained using mass flow controllers ([42]), and the hydroxylation levels were analyzed by MALDI-TOF-MS. B, O2 dependence of FIH-catalyzed hydroxylation of CAD HIF-1/2α 35-mer peptides. Conditions were as follows. 5 μM FIH, 500 μM peptide, 50 μM Fe(II), 1 mM 2OG, 1 mM L-ascorbate in HEPES 50 mM (pH 7.5) were incubated at 37 °C in a hypoxia work station under different pO2. […] Error bars, S.D. of triplicate assays.
FIGURE 8. Time course and O2 dependence of the FIH-catalyzed hydroxylation of HIF-α CAD and ARD substrates. Conditions were as follows. 5 μM FIH, 500 μM peptide, 50 μM Fe(II), 1 mM 2OG, 1 mM L-ascorbate in HEPES 50 mM (pH 7.5) were incubated at 37 °C. For O2 dependence studies, reactions were carried out in a hypoxic work station under different pO2 (assays at >20% O2 conducted using mass flow controllers ([42])). The different hydroxylation levels were analyzed by MALDI-TOF-MS or by LC-MS (for 2CA and 3CA). […] Error bars, S.D. of triplicate assays. A, time course of consensus ARD substrate hydroxylation (tankyrase-1 (tnkrs-1 20-mer and 35-mer) and one-consensus ankyrin repeat 20-mer (1CA)). B, time course of ARD peptide hydroxylation (one-consensus ankyrin repeat 20-mer (1CA), two ankyrin repeats (2CA), and three ankyrin repeats (3CA)). C, O2 dependence of HIF-1/2α CAD, 1CA, and tnkrs-1_35-mer hydroxylation. D, O2 dependence of 1CA, 2CA, and 3CA hydroxylation.

FIH [2] = biological target: T1, FIH; assay: Rapid quench-flow, FIH pre-steady-state product and succinate formation; conditions: for Rapid quench-flow kproduct / Rapid quench-flow ksuccinate: 0.5 mM apo-FIH, 0.4 mM Fe(II), 5 mM 2OG, 1 mM substrate, 50 mM HEPES pH 7.5, O2-saturated buffer 1:1, 5 °C, quenched with 1% CF3CO2H; for Rapid quench-flow kproduct: hydroxylation by MALDI-TOF-MS, 1–3 separate experiments; for Rapid quench-flow ksuccinate: succinate by LC-MS
Protocol: Rapid quench-flow experiments were performed using the same conditions and preparation of the assay mixture as used in stopped-flow experiments. Rapid quench-flow equipment (TgK Scientific Ltd.) in an anaerobic glove box was used for the experiments. Samples were quenched with 1% CF3CO2H and analyzed using MALDI-TOF-MS (peptide hydroxylation) as described above or liquid chromatography-mass spectrometry (LC-MS, for succinate production). For LC-MS, chromatographic separation was performed at 50 °C using a Waters ACQUITY BEH Amide 1.7-μm, 2.1 × 100-mm column on a Waters ACQUITY^TM ultraperformance liquid chromatography system (Waters Corp., Milford, MA). The following eluents were used: mobile phase A: 10% H2O, 90% acetonitrile (v/v), 10 mM ammonium formate; mobile phase B: 50% H2O, 50% acetonitrile (v/v), 10 mM ammonium formate. The elution gradient was 0–7.0 min linear from 10 to 30% B, and 7.0–9.0 min at 10% B for re-equilibration of the column. A constant flow rate of 0.4 ml/min was used. Analytes were detected in negative ionization mode using single reaction monitoring on a Quattro triple quadrupole mass spectrometer (Waters) with a cone voltage of 15 V and a capillary voltage of 3.0 kV. The desolvation temperature was set to 250 °C, and the source temperature was set to 120 °C.
FIGURE 9. Rapid quench-flow experiments showing FIH-catalyzed hydroxylation of HIF-1/2α CAD and ARD substrates. Reaction mixtures containing anaerobic 0.5 mM apo-FIH, 0.4 mM Fe(II), 5 mM 2OG, 1 mM peptide in HEPES 50 mM (pH 7.5) were rapidly mixed with O2-saturated buffer at 5 °C in a 1:1 ratio and then quenched with 1% CF3CO2H at defined time points. The data were fitted with the function, y = a·(1 − exp(−bx)) + c. Hydroxylation levels were assessed by MALDI-TOF-MS. A, hydroxylation of HIF-1α CAD, 1CA, and tankyrase-1 peptide substrates (19- and 20-mers); B, hydroxylation of HIF-1α, HIF-2α, and tankyrase-1 35-mer peptide substrates; C, hydroxylation of 1CA, 2CA, and 3CA. Data plotted were cumulatively acquired over the course of 1–3 separate experiments.

FIH [3] = biological target: T1, FIH; assay: Steady-state kinetics of FIH-catalyzed peptide/protein hydroxylation (MALDI-TOF-MS or LC-MS); conditions: 50 μM Fe(II), 1 mM L-ascorbate, 50 mM HEPES pH 7.5, 37 °C; for Km: 0.1–5 μM FIH, MALDI-TOF-MS (LC-MS for 2CA, 3CA), triplicate assays
Protocol: Enzymatic assays were conducted as described ([46], [47]). Unless otherwise stated, the assay mixture typically contained 5 μM FIH, 500 μM substrate, 500 μM 2OG, 1 mM L-ascorbate, and 50 μM Fe(NH4)2(SO4)2 or 4 μM PHD2, 100 μM substrate, 300 μM 2OG, 4 mM L-ascorbate, and 50 μM Fe(NH4)2(SO4)2. For HIF-1α CODD19-mer, the background levels of methionine oxidation resulting from assay conditions were subtracted based on non-enzymatic controls ([48]).
as §1
Samples obtained from FIH kinetic assays with 2CA and 3CA were diluted to a substrate concentration of 5 μM and then analyzed using a Waters® LCT Classic mass spectrometer by electrospray ionization in positive ion mode. An Agilent HP1100 LC system was used, and samples were run through a Phenomenex® Aeris Widepore 3.6-μm XB-C8 150 × 2.1-mm column at 0.5 ml/min in a gradient of phase A (95% H2O, 5% CH3CN, 0.01% formic acid) to phase B (95% CH3CN, 5% H2O, 0.01% formic acid). The LC/MS used the following method: 0–1.5 min, 100% A and then 1.5–12 min linear gradient from 0 to 100% B, 12–14 min 100% B, and 15.0–19.0 min 100% A for re-equilibration of the column. Data were collected and analyzed using MassLynx version 4.0.

FIH [4] = biological target: T1, FIH; assay: Stopped-flow UV-visible spectroscopy, FIH·Fe(II)·2OG·substrate + O2; conditions: anaerobic 0.5 mM FIH, 1 mM substrate, 5 mM 2OG, 0.4 mM Fe(II), 50 mM HEPES pH 7.5, mixed 1:1 with O2-saturated buffer at 5 °C; double exponential fit
Protocol: (§2) Stopped-flow UV-visible spectroscopy experiments were performed as described previously ([32], [42]). Anerobically prepared assay mixtures containing 0.5 mM apo-FIH, 1 mM substrate, 5 mM 2OG, 0.4 mM Fe(II) or 0.8 mM apo-PHD2, 1 mM substrate, 5 mM 2OG, 0.5 mM Fe(II) were rapidly mixed with O2-free/O2-saturated buffer. The reaction was observed over 1000 s using a photodiode array detector, and kinetic traces were analyzed using Origin version 8.51 software. Data were fitted with a double exponential function (y = A1 × exp(−kriset) + A2 × exp(−kfallt) + y0). The A1, A2, and y0 parameters were restricted with upper limits to match the observed amplitude/offset changes.
Kinetic traces were fitted using a double exponential function; the fitting parameters of intermediate formation and decay are summarized in Table 3.
FIGURE 10. Stopped-flow UV-visible absorbance changes upon FIH-catalyzed hydroxylation of HIF-1/2α CAD and ARD substrates. Reaction mixtures containing anaerobic 0.5 mM apo-FIH, 0.4 mM Fe(II), 5 mM 2OG, and 1 mM peptide in HEPES 50 mM (pH 7.5) were rapidly mixed with O2-saturated buffer at 5 °C in 1:1 ratio and analyzed using a photodiode array detector. The data were fitted with a double exponential function. A, decay at 500 nm (representing enzyme·substrate complex depletion) observed upon FIH-catalyzed hydroxylation of ARD substrates compared with HIF-1/2α CAD. B, formation and degradation of 310 nm species observed upon FIH-catalyzed HIF-1/2α CAD and ARD hydroxylation. C, decay at 500 nm observed upon FIH-catalyzed hydroxylation of 1CA, 2CA, and 3CA substrates.

PHD2 = biological target: T2, PHD2 (Homo sapiens, UniProt Q9GZT9); assay: Stopped-flow UV-visible spectroscopy, PHD2·Fe(II)·2OG·substrate + O2; conditions: anaerobic 0.8 mM PHD2, 1 mM peptide, 5 mM 2OG, 50 mM HEPES pH 7.5, mixed 1:1 with O2-saturated buffer at 5 °C; double exponential fit; traces average of triplicate
T2 construct: The catalytic domain of PHD2 (residues 181–426) was purified as described; made in house
Protocol: as §2, with “Anerobically prepared assay mixtures containing 0.5 mM apo-FIH, 1 mM substrate, 5 mM 2OG, 0.4 mM Fe(II) or 0.8 mM apo-PHD2, 1 mM substrate, 5 mM 2OG, 0.5 mM Fe(II) were rapidly mixed with O2-free/O2-saturated buffer.” left out
Previously reported pre-steady-state kinetic studies on PHD2 focused on its reaction with CODD HIF-1α 19-mer peptide ([38], [42]); there is no reported information on the rates of PHD2 reaction with O2 in the presence of NODD HIF-1α or HIF-2α substrates. To ascertain whether a slow reaction with O2 under pre-steady-state conditions is common to PHD2-catalyzed hydroxylation of both CODD and NODD, we investigated the reaction of PHD2 with NODD substrates in comparison with CODD for both HIF-1α and HIF-2α. Pre-steady-state reactions of PHD2 were initiated by rapid mixing of anaerobic PHD2·Fe(II)·2OG·HIF-α complexes with O2-saturated buffer at 5 °C. Reactions were initially observed using a photodiode array detector, and difference spectra (in comparison with the reaction with O2-free buffer) were subsequently analyzed.
FIGURE 5. Pre-steady-state kinetics of PHD2-catalyzed HIF-1/2α hydroxylation. […] B, stopped-flow kinetic traces at 520 nm showing absorbance changes in control experiments: Fe(II) only, mix of Fe(II) and 2OG, reaction of PHD2·Fe(II)·2OG complex with O2 in the absence of CODD; reaction of PHD2·Fe(II)·N-oxalylglycine (NOG)·CODD complex with O2. N-Oxalylglycine is an inhibitor of 2OG oxygenases. […] The kinetic traces represent the average of triplicate assays. E, HIF-1/2α peptide hydroxylation, as determined by MALDI-TOF-MS. Reactions were quenched with 1% CF3CO2H at defined time points.

T1 sequence (Q9NWT6 whole entry): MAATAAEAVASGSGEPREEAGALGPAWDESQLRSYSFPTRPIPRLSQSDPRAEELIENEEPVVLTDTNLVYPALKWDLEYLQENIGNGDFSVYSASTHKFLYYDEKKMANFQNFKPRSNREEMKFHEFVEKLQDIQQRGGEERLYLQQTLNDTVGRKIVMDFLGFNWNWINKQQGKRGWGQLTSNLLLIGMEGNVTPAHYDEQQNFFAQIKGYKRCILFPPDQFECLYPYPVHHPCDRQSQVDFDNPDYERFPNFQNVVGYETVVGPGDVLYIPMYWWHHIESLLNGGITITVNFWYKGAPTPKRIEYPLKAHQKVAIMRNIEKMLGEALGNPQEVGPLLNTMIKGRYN
T2 sequence (Q9GZT9 181-426): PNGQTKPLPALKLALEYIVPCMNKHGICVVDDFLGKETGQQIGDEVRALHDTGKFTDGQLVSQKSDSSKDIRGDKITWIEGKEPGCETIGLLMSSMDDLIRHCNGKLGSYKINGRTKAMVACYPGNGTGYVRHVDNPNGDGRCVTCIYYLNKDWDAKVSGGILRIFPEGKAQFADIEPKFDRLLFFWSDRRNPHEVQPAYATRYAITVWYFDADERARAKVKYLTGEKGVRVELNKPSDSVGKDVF

Molecule	Km^app(O2) (FIH [1])	Rapid quench-flow kproduct (FIH [2])	Rapid quench-flow ksuccinate (FIH [2])	Km (FIH [3]; FIH with the named substrate, 2OG varied, read-out: Km^app(2OG))	kcat^app (FIH [3]; FIH, MALDI-TOF-MS or LC-MS)	Km (FIH [3]; FIH, substrate varied, 2OG fixed, read-out: Km^app(peptide))	Stopped-flow, 500 nm (FIH) kfall phase (FIH [4])	Stopped-flow, 500 nm (FIH) krise phase (FIH [4])	product accumulation rate, fold faster than the reaction with HIF 35-mer substrates (FIH [2]; rapid quench-flow, 5 °C)	Stopped-flow, 520 nm (PHD2) kfall phase (PHD2)
DESGLPQLTSYDCEVNAPI [CAD HIF-1α19-mer]	no difference	0.013 ± 0.003 s⁻¹	0.016 ± 0.004 s⁻¹	–	–	–	–	–	–	–
NLEVAEYLLEHGADVNAQDK [tnkrs-1_20-mer, 20-mer fragment of tankyrase-1, ARD substrate of FIH]	–	1.5 ± 0.1 s⁻¹	1.0 ± 0.3 s⁻¹	370 ± 120 µM	0.8 ± 0.1 s⁻¹	78 ± 11 µM	16.7 ± 0.2 s⁻¹	0.4 ± 0.2 s⁻¹	~10 fold	–
B1	–	–	–	–	–	–	–	–	–	same kinetics
